Consider two molecules from PMC5428017, “Targeting to the non-genomic activity of retinoic acid receptor-gamma by acacetin in hepatocellular carcinoma” (Scientific Reports, 2017).

What is called IC50 is the midpoint of a concentration-inhibition curve. A higher IC50 goes with a need for much substance.

Data set [1] addresses T1, retinoic acid receptor-γ (RARγ) (Homo sapiens, UniProt P13631).
T1 construct: gene RARG; RARγ LBD
T1 sequence (P13631 185-419 limits assumed): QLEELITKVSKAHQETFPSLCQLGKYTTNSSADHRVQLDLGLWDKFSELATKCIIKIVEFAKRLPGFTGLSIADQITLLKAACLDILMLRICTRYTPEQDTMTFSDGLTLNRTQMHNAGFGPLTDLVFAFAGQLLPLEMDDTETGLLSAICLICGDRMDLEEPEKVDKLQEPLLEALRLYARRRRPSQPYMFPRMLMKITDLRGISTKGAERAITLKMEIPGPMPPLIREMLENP
Briefly: competitive radioligand displacement of [3H]atRA from purified RARγ LBD; supported by GFP-RARγ fluorescence quenching in cells and reporter antagonism. It counts as binding. (Loss of bound radioactivity is the signal in a displacement assay; it reports binding, not function.)

In a further data set the target is T2, RARα (Homo sapiens, UniProt P10276).
T2 construct: gene RARA; RARα LBD
T2 sequence (P10276 183-417 limits assumed): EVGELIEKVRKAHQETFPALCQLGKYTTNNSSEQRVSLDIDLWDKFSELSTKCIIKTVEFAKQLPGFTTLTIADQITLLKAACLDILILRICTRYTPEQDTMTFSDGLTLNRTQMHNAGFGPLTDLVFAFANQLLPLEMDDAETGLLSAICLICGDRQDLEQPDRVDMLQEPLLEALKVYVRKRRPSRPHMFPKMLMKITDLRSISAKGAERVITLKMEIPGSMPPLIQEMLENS
Briefly: competitive radioligand displacement of [3H]atRA from RARα LBD. The data set is classed as binding.

Data set [2] concerns the target T3, retinoic acid receptor-γ (RARγ) (Homo sapiens, UniProt P13631, R278A).
T3 construct: gene RARG; Gal4-RARγ/R278A
T3 sequence (P13631 185-419 R278A limits assumed): T1 sequence (P13631 185-419 limits assumed) with R94A
The data set can be described thus: Gal4-RARγ luciferase reporter in HEK293T cells, […] atRA. The conditions noted are these: 0.1 µM. The data set is classed as cell-based.

The target in the next data set is T4, RARβ (Homo sapiens, UniProt P10826).
T4 construct: gene RARB; RARβ LBD
T4 sequence (P10826 183-417 limits assumed): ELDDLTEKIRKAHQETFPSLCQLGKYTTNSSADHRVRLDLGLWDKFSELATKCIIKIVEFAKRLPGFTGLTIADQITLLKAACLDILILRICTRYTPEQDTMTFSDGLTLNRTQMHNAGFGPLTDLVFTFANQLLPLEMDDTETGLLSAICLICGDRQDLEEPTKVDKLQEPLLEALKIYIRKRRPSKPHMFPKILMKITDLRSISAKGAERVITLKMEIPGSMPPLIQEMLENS
Briefly: competitive radioligand displacement of [3H]atRA from RARβ LBD. The data set is classed as binding.

Residue numbers refer to the chain shown, from its start.

With `COc1ccc(-c2cc(=O)c3c(O)cc(O)cc3o2)cc1` [acacetin, 5,7-dihydroxy-4′-methoxyflavone], the IC50 in data set [1] was determined as 12.8 µM.

Consider `CC1=C(/C=C/C(C)=C/C=C/C(C)=C/C(=O)O)C(C)(C)CCC1` [atRA], for which the “competitive radioligand displacement of [3H]atRA from RARα LBD” value at RARα was “both [^3H]atRA-bound complexes could be displaced by unlabeled atRA but not by acacetin”. The “Gal4-RARγ luciferase reporter in HEK293T cells, 10^-7 M atRA” value in data set [2] is recorded as 22 fold activation. Also, on RARβ, the “competitive radioligand displacement of [3H]atRA from RARβ LBD” value is “both [^3H]atRA-bound complexes could be displaced by unlabeled atRA but not by acacetin”.
